Assay results from patent US20250332442A1, “ORAL HYGIENE DEVICE AND SYSETM, AND USE METHOD” (CHANGSHA […] IN[…]., LTD., priority 2023, published 2025).

What was measured:
Type in all cases: cell-based
Enterococcus faecalis = experiment: photodynamic sterilization experiment with constant-current source device (Embodiment 12); details: red light 630 nm and blue light 430 nm, irradiation 30 seconds, device of Embodiment 12
Excerpt: (§1) The device of Embodiment 12 and photosensitizer toluidine blue O are used in cooperation to carry out the photodynamic sterilization experiment on Porphyromonas gingivalis and Enterococcus faecalis. A red light beam with a wavelength of 630 nm and a blue light beam with a wavelength of 430 nm are used to irradiate for 30 seconds.

Porphyromonas gingivalis [1] = experiment: as above; details: red light 630 nm and blue light 430 nm, irradiation 30 seconds, device of Embodiment 12
Excerpt: as §1

[2] = test system: Actinobacillus actinomycetemcomitans; experiment: photodynamic sterilization with periodontal light guide needle device (Embodiment 4); details: red light beam 630 nm, irradiation 30 s, tip of periodontal light guide needle
Excerpt: The device of Embodiment 4 and photosensitizer toluidine blue O are used in cooperation to carry out photodynamic sterilization of Actinobacillus actinomycetemcomitans, and a red light beam with a wavelength of 630 nm is selected to irradiate for 30 s.

Porphyromonas gingivalis [3] = experiment: photodynamic sterilization with pure flat light guide needle device (Embodiment 8); details: red light beam 630 nm, irradiation 30 s, tail end of pure flat light guide needle
Excerpt: The device of Embodiment 8 and photosensitizer toluidine blue O are used in cooperation to carry out photodynamic sterilization of Porphyromonas gingivalis, and a red light beam with a wavelength of 630 nm is selected to irradiate for 30 s.

[4] = test system: Enterococcus faecalis ATCC2921; experiment: photodynamic sterilization experiment with root canal light guide needle device; details: red-light beam 630 nm, irradiation 30 s, tip of root canal light guide needle
Description: The photodynamic sterilization experiment on Enterococcus faecalis ATCC2921 is carried out using the device provided by the present disclosure and the photosensitizer toluidine blue O, and a red-light beam with a wavelength of 630 nm is selected to irradiate for 30 s.

Measured: sterilization efficiency

Cc1cc2nc3ccc(=[N+](C)C)cc-3sc2cc1N [toluidine blue O]
99%: all assays above
